# Measurements from patent US12560591B2, “Methods of treatment with CD8 T cell-mediated immune therapy” (Providence Health & Services—Oregon, priority 2019, dated 2026).
# Tested on: CT26 tumors
# Assay: CT26 tumor model: ALK5 inhibitor with chemoradiation (RT+5FU), tumor growth and survival
# Type: in vivo, mouse
# Conditions: CT26 tumor-bearing mice, LY added to RT+5FU, FIG. 1B
# Description: FIGS. 1A-1D are a series of panels showing that the TGFβR1 antagonist LY2157299 enhances chemo-radiation efficacy dependent on CD8α^+ cells in CT26 tumors. FIG. 1A is a treatment schema in the CT26 tumor model. Six to eight week old BALB/c mice were implanted subcutaneously in the left flank with 2×10^5 CT26 tumor cells. Seven days following implant, animals were randomized based on tumor size, and vehicle control or LY2157299 compound were administered by oral gavage twice daily every 12 hours at 150 mg/kg for 7 consecutive days. At day 14, some mice received five consecutive radiation treatments of 5 Gy targeted to tumor tissue along with 25 mg/kg injections of 5-fluorouracil (5FU) chemotherapy administered intraperitoneally on days 14, 16, and 18. LY treatment groups resumed BID oral dosing from days 21-27. Mean tumor growth (i) and survival (ii) were assessed three times per week up to 100 days or death (FIG. 1B). […] Arrows identify pSMAD2^+CD8^+ cells in vehicle mice. […] NS=not significant, *=p<0.05, **=p<0.01, ***=p<0.001.
# FIGS. 6A-6D are a series of panels showing generation of tumor-specific immune memory following tumor eradication with TGFβ inhibition with chemoradiation. […] The number of mice cured over the total number of mice in each group is indicated in the top right corner. One representative experiment is shown reflective of two independent experiments. Mice who eradicated their tumors were rechallenged with CT26 and 4T1 tumors. CT26 tumor cells were rechallenged on the opposite flank as from the original cured tumor. In FIG. 6D, 4T1 and CT26 tumor establishment and growth was followed for up to 60 days post re-challenge. The number of tumors rejected per total mice rechallenged in each tumor type is indicated in the top right portion of the graph. ***=p<0.001
# Animal studies and cell culture: C57BL/6, BALB/c, CD8Cre, Lyz2Cre, and Foxp3-eGFP-CreERT2 mice were purchased from the Jackson Laboratories (Bar Harbor, Maine). ALK5flox/flox mice were a generous gift from Andrew Weinberg (Providence Cancer Center). All transgenic mice were on C57BL/6 background. CT26, MC38, 4T1 and MCA205-OVA tumor cells were grown in DMEM medium supplemented with 10% heat-inactivated fetal bovine serum and 1% penicillin-streptomycin to 60-90% confluence prior to tumor implantation. All cells were washed 2× with 1×PBS and implanted subcutaneously in a 100 μl volume of 1×PBS in the lower flanks. 1×10^5 MC38 cells, 2×10^5 CT26 cells, 5×10^4 4 T1 cells, and 5×10^6 MCA205-OVA cells were used for tumor induction. Tumors were measured 3×/week until they reached the survival end-point of 144 mm^2. […] Following single cell preparation, cells were washed and resuspended in FACS buffer (1×PBS, 1% BSA, 2 mM EDTA) and counted prior to FACS staining using a Guava EasyCyte cytometer (Millipore). […]
structure (smiles),measurement,setting,value
Cc1cccc(-c2nn3c(c2-c2ccnc4ccc(C(N)=O)cc24)CCC3)n1 [LY2157299],median survival,"150 mg/kg BID oral, p<0.01",45 days
same,tumor growth,,significantly slowed tumor growth
